Experimental data taken from US20230084927A1, “GLUCOSE UPTAKE INHIBITORS AND USES THEREOF” (METABOMED LTD., priority 2019, published 2023).
Where two headings read alike, the source gives them in different places.

Assays:
[1] = tested on: SDH-KO-HRAS cells (SDHB-deficient); assay: Cellular / differential toxicity assay (CellTiter-Glo, 3 days); type: cell-based, murine; settings: toxicity, SDH-KO cells, 3 days, CellTiter-Glo, read-out: EC50 (uM) SDH-KO-HTAS-C17
Method in brief: (§1)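 Isogenic SDHB-deficient (HRAS-transformed SDH-KO) and SDH-WT cells grown in DMEM-F12 with 1 mM glutamine and 3% FBS, plated with compound (10-point dilution from 10 uM to 0.0065 uM or lower) for 3 days at 37 °C, 5% CO2. Viability by CellTiter-Glo luminescence; EC50 calculated.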

[2] = tested on: SDH-WT cells; assay: as above; type: cell-based, murine; settings: toxicity, SDH-WT cells, 3 days, CellTiter-Glo, read-out: EC50 (uM) SDH-WT
Method in brief: as §1

| SMILES | EC50 ([1]; Mus musculus, 72 h) | EC50 ([2]; Mus musculus, 72 h) | EC50 [2] | EC50 [1] |
| --- | --- | --- | --- | --- |
| Cc1nc(N)c2sc3nc4c(cc3c2n1)COC(C)(C)C4 [Compound 237] | 3 to 10 µM | > 10 µM | – | – |
| CC1(C)Cc2nc3sc4c(NCCCO)ncnc4c3cc2CO1 [Compound 238] | > 10 µM | > 10 µM | – | – |
| CC(C)CCNc1ncnc2c1sc1nc3c(cc12)COC(C)(C)C3 [Compound 239] | > 10 µM | > 10 µM | – | – |
| Cc1nc(NCCc2ccccc2)c2sc3nc4c(cc3c2n1)COC(C)(C)C4 [Compound 240] | 3 to 10 µM | > 10 µM | – | – |
| CCCCCCCNc1nc(C)nc2c1sc1nc3c(cc12)COC(C)(C)C3 [Compound 241] | > 10 µM | > 10 µM | – | – |
| CCCCN(C)c1nc(C)nc2c1sc1nc3c(cc12)COC(C)(C)C3 [Compound 242] | > 10 µM | > 10 µM | – | – |
| CCCCCNc1ncnc2c1sc1nc3c(cc12)COC(C)(C)C3 [Compound 243] | 3 to 10 µM | 3 to 10 µM | – | – |
| Cc1nc(NN)c2sc3nc4c(cc3c2n1)COC(C)(C)C4 [Compound 244] | > 10 µM | > 10 µM | – | – |
| CC1CCN(c2ncnc3c2sc2nc4c(cc23)COC(C)(C)C4)CC1 [Compound 245] | > 10 µM | > 10 µM | – | – |
| CCCCCCCCNc1ncnc2c1sc1nc3c(cc12)COC(C)(C)C3 [Compound 246] | > 10 µM | > 10 µM | – | – |
| CC1(C)Cc2nc3sc4c(NCC5CCCO5)ncnc4c3cc2CO1 (centres unmarked) [Compound 247] | 3 to 10 µM | > 10 µM | – | – |
| CCCN(CCC)c1nc(C)nc2c1sc1nc3c(cc12)COC(C)(C)C3 [Compound 248] | > 10 µM | > 10 µM | – | – |
| CCCCCCCCCNc1ncnc2c1sc1nc3c(cc12)COC(C)(C)C3 [Compound 249] | > 10 µM | > 10 µM | – | – |
| Cc1nc(NCCO)c2sc3nc4c(cc3c2n1)COC(C)(C)C4 [Compound 250] | > 10 µM | > 10 µM | – | – |
| Cc1nc(NCCC(C)C)c2sc3nc4c(cc3c2n1)COC(C)(C)C4 [Compound 251] | > 10 µM | > 10 µM | – | – |
| Cc1nc(NC(C)CCc2ccccc2)c2sc3nc4c(cc3c2n1)COC(C)(C)C4 (centres unmarked) [Compound 252] | > 10 µM | – | > 10 µM | – |
| CCN(CC)c1nc(C)nc2c1sc1nc3c(cc12)COC(C)(C)C3 [Compound 253] | > 10 µM | > 10 µM | – | – |

| SMILES | EC50 ([1]; Mus musculus, 72 h) | EC50 ([2]; Mus musculus, 72 h) | EC50 [2] | EC50 [1] |
| --- | --- | --- | --- | --- |
| Cc1nc(NCc2ccccc2)c2sc3nc4c(cc3c2n1)COC(C)(C)C4 [Compound 254] | > 10 µM | > 10 µM | – | – |
| CCCCCCCNc1ncnc2c1sc1nc3c(cc12)COC(C)(C)C3 [Compound 255] | > 10 µM | > 10 µM | – | – |
| CCCCN(CC)c1ncnc2c1sc1nc3c(cc12)COC(C)(C)C3 [Compound 256] | 3 to 10 µM | 3 to 10 µM | – | – |
| CC1(C)Cc2nc3sc4c(NCCO)ncnc4c3cc2CO1 [Compound 257] | > 10 µM | > 10 µM | – | – |
| CCCCN(CCCC)c1ncnc2c1sc1nc3c(cc12)COC(C)(C)C3 [Compound 258] | > 10 µM | > 10 µM | – | – |
| CC(C)(C)Nc1ncnc2c1sc1nc3c(cc12)COC(C)(C)C3 [Compound 259] | > 10 µM | > 10 µM | – | – |
| CC1(C)Cc2nc3sc4c(NCCc5ccccc5)ncnc4c3cc2CO1 [Compound 260] | > 10 µM | > 10 µM | – | – |
| CC1(C)Cc2nc3sc4c(NC5CCCCC5)ncnc4c3cc2CO1 [Compound 261] | > 10 µM | > 10 µM | – | – |
| CCCCCNc1nc(C)nc2c1sc1nc3c(cc12)COC(C)(C)C3 [Compound 262] | > 10 µM | > 10 µM | – | – |
| Cc1nc(N2CCC(C)CC2)c2sc3nc4c(cc3c2n1)COC(C)(C)C4 [Compound 263] | > 10 µM | > 10 µM | – | – |
| Cc1nc(NC2CCCCC2)c2sc3nc4c(cc3c2n1)COC(C)(C)C4 [Compound 264] | 3 to 10 µM | > 10 µM | – | – |
| Cc1nc(NC(C)CCc2ccccc2)c2sc3nc4c(cc3c2n1)COC(C)(C)C4 (centres unmarked) [Compound 265] | – | – | 3 to 10 µM | > 10 µM |
| Cc1nc(NC(C)Cc2ccccc2)c2sc3nc4c(cc3c2n1)COC(C)(C)C4 (centres unmarked) [Compound 266] | > 10 µM | 3 to 10 µM | – | – |
| CC1(C)Cc2nc3sc4c(NCCN5CCOCC5)ncnc4c3cc2CO1 [Compound 267] | > 10 µM | > 10 µM | – | – |
| Cc1nc(N2CCCC2)c2sc3nc4c(cc3c2n1)COC(C)(C)C4 [Compound 268] | > 10 µM | > 10 µM | – | – |
| CCCCN(CC)c1nc(C)nc2c1sc1nc3c(cc12)COC(C)(C)C3 [Compound 269] | > 10 µM | > 10 µM | – | – |
| CC1(C)Cc2nc3sc4c(N(CCO)Cc5ccccc5)ncnc4c3cc2CO1 [Compound 271] | > 10 µM | 3 to 10 µM | – | – |
